Laboratory results reported in US9920061B2, “Imidazo[1,5-A]pyrimidinyl carboxamide compounds and their use in the treatment of medical disorders” (Lysosomal Therapeutics Inc., priority 2016, dated 2018).
Converted amounts (≈) assume the structure as drawn. Read-outs that look alike come from different tables or passages of the source.

Assays:
[1] = Compound solubility in water; format: physicochemical
[2] = target: T1, glucocerebrosidase (Gcase) (Homo sapiens, UniProt P04062); test: Glucocerebrosidase (Gcase) activation assay, 4-methylumbelliferyl-beta-D-glucopyranoside substrate, with saposin C; format: biochemical
T1 sequence (P04062 40-536): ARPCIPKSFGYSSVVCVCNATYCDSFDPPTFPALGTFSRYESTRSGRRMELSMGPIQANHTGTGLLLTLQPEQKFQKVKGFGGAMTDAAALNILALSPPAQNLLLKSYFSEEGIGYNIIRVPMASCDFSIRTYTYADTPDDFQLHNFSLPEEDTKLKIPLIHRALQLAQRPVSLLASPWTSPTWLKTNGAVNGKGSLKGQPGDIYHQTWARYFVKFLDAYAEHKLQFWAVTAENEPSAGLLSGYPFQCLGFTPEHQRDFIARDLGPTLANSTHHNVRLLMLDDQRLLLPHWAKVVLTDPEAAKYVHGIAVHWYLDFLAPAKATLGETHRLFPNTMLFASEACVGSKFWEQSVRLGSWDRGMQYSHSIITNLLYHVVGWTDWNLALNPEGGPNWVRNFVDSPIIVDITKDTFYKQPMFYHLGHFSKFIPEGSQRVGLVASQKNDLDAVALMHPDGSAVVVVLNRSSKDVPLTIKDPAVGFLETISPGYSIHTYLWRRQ
In short: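 Micellar buffer (176 mM K2HPO4/50 mM citric acid, pH 4.7; 0.32 mM triton, 0.37 mol % PS) holding 10 nM GCase and 100 nM saposin C, pre-incubated with compound 30 min at room temperature. Substrate final 2 mM before mixing; 15 min reaction, glycine pH 12.5 stop, fluorescence 365/440 nm. Screened at 1.0 and 0.1 μM; 8-point, 3-fold dose response.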

[3] = 0.1 μM test compound, read-out: Percent Gcase Activation 0.1 μM Test Compound
[4] = 1 μM test compound, read-out: Percent Gcase Activation 1 μM Test Compound
[5] = test compound at 0.1 μM, read-out: Percent Gcase Activation, 0.1 μM Test Compound
[6] = test compound at 1.0 μM, read-out: Percent Gcase Activation, 1 μM Test Compound

Compound	solubility [1]	activation at 0.1 µM [2, 3]	activation at 1 µM [2, 4]	solubility ([1]; in water)	activation at 0.1 µM [2, 5]	activation at 1 µM [2, 6]
COCc1cc(-c2ccc(F)cc2)n2cnc(C(=O)N[C@@H](C)C3CC3)c2n1 [III-35]	43.5 µg/mL (≈ 118 µM)	< 10%	< 30%			
Cc1cc(-c2ccccc2C(N)=O)nc2c(C(=O)NC(C3CC3)C(F)(F)F)ncn12 (stereo not drawn) [III-154]	28.1 µg/mL (≈ 67.3 µM)	< 10%	< 30%			
Cc1cc(-c2cccc3scnc23)nc2c(C(=O)NC(C3CC3)C(F)(F)F)ncn12 (stereo not drawn) [IV-47]				3.8 µg/mL (≈ 8.81 µM)	< 10%	30 to 60%
Cc1cc(-c2ccc(F)cc2)nc2c(C(=O)N[C@H](C3CC3)C(F)(F)F)ncn12 [IV-45]				2.5 µg/mL (≈ 6.37 µM)	> 20%	> 60%
Cc1cc(-c2cccc(Cl)n2)nc2c(C(=O)N[C@@H](C)C3CC3)ncn12 [III-103]	3.8 µg/mL (≈ 10.7 µM)	< 10%	> 60%			
CCc1cc(N2CCN(C(C)C)C2=O)nc2c(C(=O)NC(C3CC3)C(F)(F)F)ncn12 (stereo not drawn) [IV-16]				24.6 µg/mL (≈ 56.1 µM)	10 to 20%	> 60%
Cc1cc(C)n2cnc(C(=O)NC(C3CC3)C(F)(F)F)c2n1 (stereo not drawn) [III-14]	37.8 µg/mL (≈ 121 µM)	< 10%	30 to 60%			
Cc1cc(-c2cccc(C#N)c2)nc2c(C(=O)NC(C)(C)C3CC3)ncn12 [III-151]	4.3 µg/mL (≈ 12 µM)	> 20%	> 60%			
Cc1cc(-c2cccc(F)c2)nc2c(C(=O)NC(C)(C)C(F)(F)F)ncn12 [III-183]	0.6 µg/mL (≈ 1.58 µM)	> 20%	> 60%			
Cc1cc(-c2ccc3ocnc3c2)nc2c(C(=O)NC(C)C(F)(F)F)ncn12 (stereo not drawn) [IV-73]				2.1 µg/mL (≈ 5.39 µM)	> 20%	> 60%
Cc1cc(-c2ccccn2)nc2c(C(=O)NC(CC(C)C)C3CC3)ncn12 (stereo not drawn) [III-27]	4.6 µg/mL (≈ 12.7 µM)	> 20%	> 60%			
Cc1cc(OC2CC2)nc2c(C(=O)NC(C3CC3)C3CC3)ncn12 [III-179]	14.3 µg/mL (≈ 43.8 µM)	< 10%	30 to 60%			
Cc1cc(Oc2ccccn2)nc2c(C(=O)N[C@@H](C)C3CC3)ncn12 [III-121]	34.9 µg/mL (≈ 103 µM)	< 10%	< 30%			
Cc1cc(-c2ccc(F)cc2)nc2c(C(=O)NC(C)(C)C3CC3)ncn12 [III-26]	1.6 µg/mL (≈ 4.54 µM)	> 20%	> 60%			
Cc1cc(-c2cscn2)nc2c(C(=O)NC(C)(C)C3CC3)ncn12 [III-62]	6.3 µg/mL (≈ 18.5 µM)	< 10%	> 60%			
COc1cc(-c2cc(C)n3cnc(C(=O)N[C@@H](C)C4CC4)c3n2)ccn1 [III-99]	25.6 µg/mL (≈ 72.8 µM)	< 10%	< 30%			
C#CC(C)(C)NC(=O)c1ncn2c(C)cc(-c3ccc4c(c3)OCO4)nc12 [IV-26]				0.5 µg/mL (≈ 1.38 µM)	10 to 20%	> 60%

Compound	solubility [1]	activation at 0.1 µM [2, 3]	activation at 1 µM [2, 4]	solubility ([1]; in water)	activation at 0.1 µM [2, 5]	activation at 1 µM [2, 6]
Cc1cc(-c2ccc(C#N)s2)nc2c(C(=O)NC(C3CC3)C(F)(F)F)ncn12 (stereo not drawn) [IV-86]				3.6 µg/mL (≈ 8.88 µM)	> 20%	> 60%
Cc1cc(Cl)nc2c(C(=O)NC(c3ccc(F)cc3)C(F)(F)F)ncn12 (stereo not drawn) [III-24]	10.4 µg/mL (≈ 26.9 µM)	10 to 20%	> 60%			
Cc1cc(-n2ccc(Cl)n2)nc2c(C(=O)NC(C)C(F)(F)F)ncn12 (stereo not drawn) [IV-74]				4.2 µg/mL (≈ 11.3 µM)	< 10%	30 to 60%
C#CC(C)(C)NC(=O)c1ncn2c(C)cc(-c3cccc4nccn34)nc12 [IV-24]				2.5 µg/mL (≈ 6.98 µM)	< 10%	< 30%
CCOc1cccc(-c2cc(C)n3cnc(C(=O)NC(C4CC4)C(F)(F)F)c3n2)n1 (stereo not drawn) [IV-102]				7.8 µg/mL (≈ 18.6 µM)	> 20%	> 60%
Cc1cc(C)n2cnc(C(=O)NC(C)C(C)C3CC3)c2n1 (stereo not drawn) [III-47]	24.2 µg/mL (≈ 84.5 µM)	< 10%	30 to 60%			
COc1cc(-c2cc(C)n3cnc(C(=O)NC(C4CC4)C4CC4)c3n2)ccc1F [III-174]	0.3 µg/mL (≈ 0.761 µM)	> 20%	> 60%			
Cc1cc(-c2ccc(C#N)o2)nc2c(C(=O)NC(C3CC3)C(F)(F)F)ncn12 (stereo not drawn) [IV-33]				0.7 µg/mL (≈ 1.8 µM)	> 20%	> 60%
Cc1cc(-n2cncn2)nc2c(C(=O)NC(C)(C)C3CC3)ncn12 [III-68]	27.3 µg/mL (≈ 83.9 µM)	< 10%	< 30%			
COCc1cc(C)n2cnc(C(=O)NC(c3ccc(F)cc3)C(F)(F)F)c2n1 (stereo not drawn) [III-22]	24.7 µg/mL (≈ 62.3 µM)	< 10%	> 60%			
C#CC(C)(C)NC(=O)c1ncn2c(C)cc(-c3cccc(OC4CC4)c3)nc12 [III-186]	1.5 µg/mL (≈ 4.01 µM)	> 20%	> 60%			
COc1cncc(-c2cc(C)n3cnc(C(=O)N[C@@H](C)C4CC4)c3n2)c1 [III-97]	17.3 µg/mL (≈ 49.2 µM)	< 10%	30 to 60%			
Cc1cc(Oc2ccncc2)nc2c(C(=O)N[C@@H](C)C3CC3)ncn12 [IV-115]				29.6 µg/mL (≈ 87.7 µM)	< 10%	< 30%
COc1c(F)cccc1-c1cc(C)n2cnc(C(=O)NC(C)C(F)(F)F)c2n1 (stereo not drawn) [IV-64]				21 µg/mL (≈ 53 µM)	< 10%	30 to 60%
COc1cc(F)cc(-c2cc(C)n3cnc(C(=O)NC(C4CC4)C4CC4)c3n2)c1 [III-173]	1.7 µg/mL (≈ 4.31 µM)	> 20%	> 60%			
Cc1cc(-c2cn(C)nn2)nc2c(C(=O)NC(C)(C)C3CC3)ncn12 [III-82]	22.8 µg/mL (≈ 67.2 µM)	< 10%	< 30%			
Cc1cc(-c2ccccc2)nc2c(C(=O)NC(C)C3CC3)ncn12 (stereo not drawn) [III-86]	13.1 µg/mL (≈ 40.9 µM)	> 20%	> 60%			
